From patent US6521635B1, “Inhibition of MXR transport by acridine derivatives” (priority 2000, dated 2003)
Read-outs that look alike come from different tables or passages of the source.

Tests used:
MCF-7 parental cells = assay: In vitro cytotoxicity assay (sulforhodamine B staining); assay type: cell-based, human; conditions: for IC50: Homo sapiens, MCF7, 96 h
Procedure: (§1) Reversal of resistance was determined in cytotoxicity assays using the sulforhodamine staining (Skehan et al. (1990) J. Natl. […] Briefly, cells were harvested and seeded at a density of 2000 cells/well for the colon cancer lines and 4000 cells/well for the breast cancer cell lines in flat-bottom 96-well plates. The cells were incubated for 24 h at 37° C. to allow attachment prior to addition of the drugs. […] Each concentration was tested in triplicate and the controls were done in replicates of eight. Results are representative of from three to six experiments. […] After incubation, the cells were fixed in TCA and stained with sulforhodamine B (SRB) solution (0.4% wt/vol in 1% acetic acid) (Sigma Chemical, St Louis, Mo.). Optical densities were read on a Bio-Rad plate reader (Hercules, Calif.) at an absorbance of 540 nm.

S1 parental cells = assay: as above; assay type: cell-based, human; conditions: for IC50: Homo sapiens; for DMF +0.5 μM GF120918 / DMF +1.0 μM GF120918: S1 cells; for DMF +0.5 μM GF120918: IC50 without / IC50 with 0.5 μM GF120918; for DMF +1.0 μM GF120918: IC50 without / IC50 with 1.0 μM GF120918
Procedure: as §1

[1] = tested on: S1-B1-20 Pgp-overexpressing cells; assay: as above; assay type: cell-based, human; conditions: for IC50: Homo sapiens, S1B1-20, 96 h; for RR (relative resistance): S1-B1-20 cells relative to S1 parental; for DMF +0.5 μM GF120918 / DMF +1.0 μM GF120918 / relative resistance: S1-B1-20 cells; for DMF +0.5 μM GF120918: IC50 without / IC50 with 0.5 μM GF120918; for DMF +1.0 μM GF120918: IC50 without / IC50 with 1.0 μM GF120918
Procedure: as §1

[2] = tested on: S1-M1-80 cells expressing MXR; assay: as above; assay type: cell-based, human; conditions: for IC50: Homo sapiens, S1-M1-80, 96 h; for RR (relative resistance): S1-M1-80 cells relative to S1 parental; for DMF +0.5 μM GF120918: IC50 without / IC50 with 0.5 μM GF120918; for DMF +1.0 μM GF120918: IC50 without / IC50 with 1.0 μM GF120918
Procedure: as §1

MXR (S1-M1-80 cells) = target: T1, MXR (S1-M1-80 cells) (Homo sapiens, UniProt Q9UNQ0, R482G); assay: Rhodamine efflux assay (flow cytometry); assay type: cell-based
T1 construct: express high levels of a mitoxantrone transporter (Miyake et al. (1999) Cancer Res.59: 8-13); endogenous in cells; host or cells: S1-M1-80 (mitoxantrone-selected subline of S1 colon carcinoma cells)
T1 sequence (Q9UNQ0 1-655 R482G): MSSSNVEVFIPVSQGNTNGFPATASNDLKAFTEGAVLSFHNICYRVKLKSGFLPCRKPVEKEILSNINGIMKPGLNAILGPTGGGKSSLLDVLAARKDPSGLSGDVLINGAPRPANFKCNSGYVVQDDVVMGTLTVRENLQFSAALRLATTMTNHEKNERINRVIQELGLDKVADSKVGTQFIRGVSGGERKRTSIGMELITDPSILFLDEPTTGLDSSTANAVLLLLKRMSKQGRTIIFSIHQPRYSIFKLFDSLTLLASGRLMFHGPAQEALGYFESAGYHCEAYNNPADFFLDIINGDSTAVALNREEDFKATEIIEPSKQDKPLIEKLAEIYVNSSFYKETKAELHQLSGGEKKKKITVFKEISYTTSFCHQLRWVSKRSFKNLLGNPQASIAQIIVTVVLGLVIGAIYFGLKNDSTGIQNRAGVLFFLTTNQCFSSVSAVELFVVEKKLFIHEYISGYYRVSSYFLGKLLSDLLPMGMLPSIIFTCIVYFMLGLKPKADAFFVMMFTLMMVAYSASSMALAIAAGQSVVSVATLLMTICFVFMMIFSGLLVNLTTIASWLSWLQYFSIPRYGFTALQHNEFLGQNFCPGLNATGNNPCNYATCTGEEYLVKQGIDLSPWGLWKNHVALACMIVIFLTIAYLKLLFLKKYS
Procedure: To provide confirmation, rhodamine efflux assays were performed. […] The results are depicted in FIG. 2.

[3] = tested on: S1 parental cells (low endogenous level of Pgp); assay: Rhodamine efflux assay (flow cytometry); assay type: cell-based, human
Procedure: The rhodamine and calcein efflux assays were performed as previously described with minor modifications (Lee et al. (1994) Mol. Pharmacol. 46: 627-638; Versantvoort et al. (1995) Int. J. Cancer 63: 855-862.) Suspensions of logarithmic phase cells were obtained from tissue culture flasks by trypsinization and transferred into round-bottom 96-well plates. […] After the efflux period, the cells were washed with DPBS and placed on ice. A FACSort flow cytometer (Becton Dickinson, San Jose, Calif.) with a 488-nm argon laser was used to analyze the samples. Rhodamine 123 or calcein fluorescence was collected after a 530 nm bandpass filter. A minimum of 10,000 events was collected per sample and the samples were gated on forward scatter versus side scatter to exclude clumps and debris; dead cells were excluded based on propidium iodide staining.
To provide confirmation, rhodamine efflux assays were performed. […] After an accumulation and efflux period, rhodamine fluorescence was quantitated by flow cytometric analysis. The results are depicted in FIG. 2. […] PSC 833, a cyclosporin-D analog, was used as a positive control for Pgp antagonism.

[4] = read-out: IC50 +0.5 μM GF120918
[5] = read-out: IC50 +1.0 μM GF120918
[6] = 96 h, read-out: IC50 +0.5 μM GF120918
[7] = 96 h, read-out: IC50 +1.0 μM GF120918
[8] = S1-M1-80 cells, chemotherapy drug without GF120918, 96 h, read-out: IC50
[9] = read-out: IC50 +0.5 μM GF120918, S1-M1-80 cells, with 0.5 μM GF120918, 96 h

SMILES | IC50 (S1 parental cells; [6]) | IC50 (S1 parental cells; [7]) | IC50 (S1 parental cells; 96 h, read-out: IC50) | DMF +0.5 μM GF120918 (S1 parental cells) | DMF +1.0 μM GF120918 (S1 parental cells) | IC50 [1, 4] | IC50 [1, 5] | IC50 ([1]; read-out: IC50) | RR (relative resistance) [1] | DMF +0.5 μM GF120918 [1] | DMF +1.0 μM GF120918 [1] | IC50 [2, 8] | IC50 [2, 9] | RR (relative resistance) [2] | DMF +0.5 μM GF120918 ([2]; S1-M1-80 cells) | DMF +1.0 μM GF120918 ([2]; S1-M1-80 cells) | relative resistance [1] | relative resistance ([2]; S1-M1-80 cells) | also measured
O=C1c2c(O)ccc(O)c2C(=O)c2c(NCCNCCO)ccc(NCCNCCO)c21 [Mitoxantrone] | 5.3 ± 4.3 nM | 5.2 ± 4.4 nM | 6.2 ± 4.7 nM | 1.2 | 1.2 | 15 ± 5.6 nM | 13 ± 6.6 nM | 410 ± 610 nM | 66 | 27 | 31 | 222000 ± 101000 nM | 1570 ± 950 nM | 35806 | 141 | 1850 | – | – | IC50 (MCF-7 parental cells; [4]): 5.7 ± 7.3 nM; IC50 (MCF-7 parental cells; [5]): 5.6 ± 8.1 nM; IC50 (MCF-7 parental cells; read-out: IC50): 25 ± 19 nM; DMF (Dose Modifying Factor) +0.5 μM GF120918 (MCF-7 parental cells; MCF-7 cells, IC50 without / IC50 with 0.5 μM GF120918): 4.4; DMF +1.0 μM GF120918 (MCF-7 parental cells; MCF-7 cells, IC50 without / IC50 with 1.0 μM GF120918): 4.4; IC50 ([2]; read-out: IC50 +1.0 μM GF120918, S1-M1-80 cells, with 1.0 μM GF120918, 96 h): 120 ± 110 nM
C/C=C/C[C@@H](C)C(=O)[C@H]1C(=O)N[C@@H](C(C)C)C(=O)N(C)CC(=O)N(C)[C@@H](CC(C)C)C(=O)N[C@@H](C(C)C)C(=O)N(C)[C@@H](CC(C)C)C(=O)N[C@@H](C)C(=O)N[C@H](C)C(=O)N(C)[C@@H](CC(C)C)C(=O)N(C)[C@@H](CC(C)C)C(=O)N(C)[C@@H](C(C)C)C(=O)N1C [PSC 833] | – | – | – | – | – | – | – | – | – | – | – | – | – | – | – | – | – | – | antagonism of MXR (MXR (S1-M1-80 cells)): not an effective antagonist for MXR; effect on rhodamine accumulation and efflux [3]: small increase in rhodamine accumulation and a decrease in efflux
CC(=O)O[C@H]1C(=O)[C@@]2(C)[C@H]([C@H](OC(=O)c3ccccc3)[C@]3(O)C[C@H](OC(=O)[C@H](O)[C@@H](NC(=O)c4ccccc4)c4ccccc4)C(C)=C1C3(C)C)[C@]1(OC(C)=O)CO[C@@H]1C[C@@H]2O [paclitaxel] | – | – | – | – | – | – | – | – | – | – | – | – | – | – | – | – | 200 fold | 1.5 fold | –
CC[C@@]1(O)C(=O)OCc2c1cc1n(c2=O)Cc2cc3c(CN(C)C)c(O)ccc3nc2-1 [topotecan] | 34 nM | 25 ± 7 nM | 36 ± 8.5 nM | 1.0 | 1.4 | 40 nM | 27 ± 5 nM | 160 ± 50 nM | 4.4 | 4 | 5.9 | 12000 ± 5000 nM | 2000 nM | 334 | 6 | 23 | 4.4 fold | 334 fold | IC50 (S1 parental cells; read-out: IC50): 36 nM
